Consider 59 compounds from the METLIN SMRT retention time set (Domingo-Almenara et al. 2019).

Each structure is given as a SMILES string.

This data set is described as follows: gradient 5% acetonitrile 3 min, to 50% in 2 min, to 85% in 15 min, held 3 min, 100 µL/min. To be noted: column: Zorbax Extend-C18 2.1 x 50 mm; eluents: water / acetonitrile, 0.1% formic acid. In a few lines:
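Retention times come from adduct peaks that were picked computationally and then checked by hand. The standards, pure and pooled in mixtures of ~100 molecules, were run on a Zorbax Extend-C18 column (2.1 × 50 mm, 1.8 μm) at 100 μL/min with water and acetonitrile, each with 0.1% formic acid. Detection was by quadrupole time-of-flight mass spectrometry in positive and negative ionization mode, with a dead volume of 40 μL and a dwell volume of 900 μL.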
Turning to `Cn1cnc(S(=O)(=O)N2CC(N(Cc3ccccc3)C3CCOCC3)C2)c1`, the RP-LC retention time was 600 s. With `CCc1ccc(NC(=O)C2(C)Oc3cccnc3N(C(C)C)C2=O)cc1` (centres undefined) the figure was 1120 s; with `O=C(c1ccc2nc[nH]c2c1)N1CCCn2nc(-c3ccc(Cl)cc3)cc2C1`, 643 s. In turn, `CC(C)CN1CCN(Cc2nc(Cn3ccn4nc(-c5ccccc5)cc4c3=O)no2)CC1` gave an RP-LC retention time of 665 s. With `Cc1nc(N2CCC(C(=O)Nc3cc(F)ccc3F)CC2)c2c(C)c(C)oc2n1` the figure was 972 s.

For the compound `CCn1c(COc2cccc3cccnc23)nnc1SC(F)F`, the RP-LC retention time was found to be 568 s. `CCOC(=O)c1c(S(=O)(=O)N2CCC(C(=O)N3CCOCC3)CC2)c(C)n(C)c1C` displayed an RP-LC retention time of 674 s. With `COc1ccc(Cc2nc(-c3ccc4nnc(C)n4c3)no2)cc1OC` the figure was 724 s. `COc1ccc2[nH]cc(CCNC(=O)c3cnn(-c4ccc(Cl)cc4)c3C3CCNCC3)c2c1`: the RP-LC retention time was 694 s. In turn, `CCCn1cc(CCNC(=O)Nc2ccccc2C)c2cccnc21` gave an RP-LC retention time of 717 s. `O=C(C1CCCO1)N1CCC(OCc2nc(-c3cccnc3)no2)CC1` (centres undefined) showed an RP-LC retention time of 636 s.

`Cc1ccc2c(=O)c(C(=O)c3ccc(Cl)cc3)cn(CC(=O)NCC3CCCO3)c2n1` (centres undefined) displayed an RP-LC retention time of 745 s. On to `CN(CCNC(=O)C1CCCN(c2cnc3nccnc3c2)C1)C1CCCCC1` (centres undefined), for which the RP-LC retention time came to 577 s. With `Cc1oc(CNC(=O)Nc2ccc(Cl)cc2F)nc1C(=O)N1CCCC1` the figure was 723 s. Turning to `Cc1nc(C)c(C(=O)N2CCCCCNC(=O)[C@@H]3CCC[C@@H]32)s1`, the RP-LC retention time was determined as 638 s.

`COc1ccc(Cl)cc1NC(=O)c1cccn1-c1cccnc1` had an RP-LC retention time of 887 s. The compound `COc1ccc(S(=O)(=O)N2CCN(c3cc(C)nc(NC4CCCCC4)n3)CC2)cc1OC` came in with an RP-LC retention time of 756 s. As to `O=C(Cc1cccs1)NCc1nnnn1-c1ccc(Cl)cc1`, the RP-LC retention time stood at 747 s. For the compound `COC(=O)c1cnc2nc(C)ccc2c1Nc1cc(F)ccc1C`, the RP-LC retention time was determined as 689 s. As for `OC(CNCc1ccc(-c2ccc(Br)cc2)o1)c1ccccc1` (centres undefined), the RP-LC retention time came to 755 s.

Turning to `CC(C)C(NC(=O)C1CCCN(S(=O)(=O)Cc2ccccc2)C1)C(C)C` (centres undefined), the RP-LC retention time was determined as 962 s. For `CC(=O)c1ccc(N2CCN(C(=O)Cn3ccc4ccc(-c5nnc(C)o5)cc43)CC2)cc1`, the RP-LC retention time was found to be 764 s.

Regarding `O=C(Nc1ccc(F)cc1F)Nc1c[nH]c2ccccc12`, the RP-LC retention time was 755 s. Turning to `CC(C)OCCCNC(=O)C1CCN(c2nc3cccnc3s2)CC1`, the RP-LC retention time was determined as 659 s. The compound `O=C(Nc1ccc(F)cc1Cl)c1cc2n(n1)CCCC2` registered an RP-LC retention time of 1010 s. Turning to `COCCN1C(=O)Cc2ccccc2C1C(=O)NCc1ccccc1F` (centres undefined), the RP-LC retention time stood at 732 s. The compound `COCCC(=O)N1CC(F)(F)C[C@H]1c1nc(COC)no1` registered an RP-LC retention time of 649 s. With `COC(=O)C1=CN(c2ccc(F)cc2)c2cc(Br)ccc2S1(=O)=O` the figure was 963 s; with `O=C(Nc1ccc(-c2nc(-c3ccccc3)co2)cc1)C1CCCCC1`, 1210 s; with `COc1cccc(CNC(=O)Nc2ccc(-c3nc(-c4ccc(C)cc4C)co3)cc2)c1`, 1170 s. For `CCCCN(CC)CCNC(=O)c1cn2c3c(ccc(Cl)c3c1=O)OCC2` the value was 758 s; for `Cc1cccc(N2CCN(S(=O)(=O)c3cc(-c4nnc(C5CC5)o4)co3)CC2)c1`, 1020 s. Take `CCN(CC)C(=O)c1cc2c(s1)N(CC1CC1)CCCC2`: the RP-LC retention time came out at 1180 s. Compound `Cc1ccccc1NS(=O)(=O)c1cc2c(s1)CCN(C(=O)C1CCC1)C2` returned an RP-LC retention time of 832 s. For `CC(=O)Nc1onc(C)c1-c1ccc(C)c(S(=O)(=O)NCc2ccc(N(C)C)cc2)c1` the value was 1170 s. Compound `CCOC(=O)Cc1ccc(NC(=O)N2CCCn3nc(-c4cccs4)cc3C2)cc1` had an RP-LC retention time of 849 s. In turn, `COc1cc(NC(=O)Nc2cccc(CNC(=O)O[C@H]3CCOC3)c2)ccc1-c1cnco1` gave an RP-LC retention time of 838 s. The compound `O=c1ccc(-c2ccccc2)nn1CCc1nc(-c2cccc(Cl)c2)no1` registered an RP-LC retention time of 1030 s. Turning to `CC(C)CN1C(=O)c2cccn2CC1C(=O)NCCCOC1CCN(C(C)C)CC1` (centres undefined), the RP-LC retention time was 598 s. With `O=C(NCCc1csc(-c2cccs2)n1)C1CCN(C(=O)C2CCCC2)CC1` the figure was 782 s; with `COCCC1CCN(C(=O)CC2CCN(C(C)=O)CC2)CC1`, 626 s; with `CCc1nnc2ccc(-c3noc(-c4ccc(C)c(C)c4)n3)cn12`, 1140 s. On to `Cc1nn(-c2ccccc2)c(C)c1S(=O)(=O)N1CCC(C(=O)Nc2ccc3c(c2)OCO3)CC1`, for which the RP-LC retention time is 905 s. `Cc1cccc(C(=O)Nc2ccc(N3CCN(C4CCCCC4)C3=O)nc2)c1`: the RP-LC retention time worked out at 950 s. For `CCCc1nc(-c2c(C)cc(C)nc2NC(=O)c2cccc(Cl)c2)no1` the value was 986 s; for `Cc1ccc(NC(=O)Cc2c(C)nn(-c3nc(-c4ccc(F)cc4)cs3)c2C)c(C)c1`, 1210 s; for `O=C(NCc1ccccc1)c1cc2sccc2n1Cc1ccc(F)cc1`, 1080 s.

`CCNC(=O)N1CCCC(c2cccc(C(=O)NC3CCCC3)c2)C1` (centres undefined) displayed an RP-LC retention time of 764 s. The compound `CCOC(=O)c1noc2ncnc(NCCCN3CCN(c4ccc(F)cc4)CC3)c12` came in with an RP-LC retention time of 599 s. For `COc1ccc(-c2nnc(-c3ccccc3)o2)cc1S(=O)(=O)Nc1cccnc1` the value was 725 s; for `O=C(Nc1nnc(SCc2ccccn2)s1)C1CC(=O)N(c2ccc(F)cc2)C1` (centres undefined), 617 s; for `Cc1cc(C)c(NC(=O)C23CCC(C)(C(=O)O2)C3(C)C)c([N+](=O)[O-])c1` (centres undefined), 884 s. As for `CCC(C)OC(=O)C1=C(C)NC(=O)NC1c1ccc(OC)c(O)c1` (centres undefined), the RP-LC retention time came to 693 s. With `COc1ccc(Nc2cc(C(=O)N3CCC(C)CC3)nc3cc(OC)c(OC)cc23)cc1Cl` the figure was 778 s; with `CCCCOc1cccc(C(=O)N(Cc2ccc(Br)o2)C2CCS(=O)(=O)C2)c1` (centres undefined), 1090 s.

Compound `CCC(CN1CCOCC1)NC(=O)c1c2c(cn(-c3ccc(F)cc3)c1=O)C(=O)CC(C)(C)C2` (centres undefined) returned an RP-LC retention time of 657 s. For `Fc1ccc(-c2noc(-c3ccc(N4CCC5(CC4)OCCO5)nc3)n2)cc1` the value was 1180 s. On to `Cc1cccc(NC(=O)C2(C)Oc3cccnc3N(C)C2=O)c1C` (centres undefined), for which the RP-LC retention time amounted to 808 s.

For `CCOC(=O)c1[nH]c(C)c(CN(CC2CCCO2)C(=O)c2ccc(OC)cc2)c1C` (centres undefined), the RP-LC retention time amounted to 852 s.
